{
  "source": "patent US20110060044A1",
  "about": "“ALIPHATIC ACID-CONTAINING N-HALOGENATED AMINO ACID FORMULATIONS” (ALCON RESEARCH, LTD., priority 2007, published 2011)",
  "key": {"[1]": {"tested_on": "C. albicans", "test": "Antimicrobial activity (time-kill viability) evaluation with C. albicans", "type": "cell-based", "conditions": "measured by viable cells per mL, Table 2 / FIG. 2", "procedure": "(§1) The antimicrobial activity of the formulations according to embodiments of the present invention were evaluated by a standard microbiological analysis. The results of this evaluation are summarized in Tables 1 and 2 below and are shown graphically in FIGS. 1 and 2. For the evaluation, bacterial and fungal isolates were grown overnight on appropriate agar media as source of fresh cells. A suspension of these fresh cells was prepared in saline at approximately 1×10^8 cfu/mL. These suspensions were added directly to the test agents (various solutions of sodium 2,2-dimethyl-N,N-dichlorotaurine and control solutions). The initial concentration of cells in the test agent solutions was approximately 1×10^6 cfu/mL. The exposure of microorganisms to the test agent was conducted at room temperature for up to 60 minutes. At selected times, an aliquot was withdrawn and diluted into phosphate buffered saline at 4° C. Viability was determined following serial dilution and filtration onto Milliflex cassettes."}, "[2]": {"tested_on": "S. aureus", "test": "Antimicrobial activity (time-kill viability) evaluation with S. aureus", "type": "cell-based", "conditions": "measured by viable cells per mL, Table 1 / FIG. 1", "procedure": "as §1, with “The results of this evaluation are summarized in Tables 1 and 2 below and are shown graphically in FIGS. 1 and 2.” left out"}},
  "note": "Entries after “also recorded” stand apart in the source; their conditions may differ.",
  "data": [
    {"compound": "CC(C)(CS(=O)(=O)O)N(Cl)Cl", "note": "[2,2-dimethyl-N,N-dichlorotaurine]", "values": [
      {"measurement": "anti-infective (antimicrobial) activity when the formulation contained sodium acetate", "setting": "[1]", "value": "dramatically improved; also recorded: increased"},
      {"measurement": "anti-infective (antimicrobial) activity when the formulation contained sodium acetate", "setting": "[2]", "value": "dramatically improved; also recorded: increased"}
    ]}
  ]
}
